Publication PMC8949771, “Gold(I)-Mediated Rapid Cyclization of Propargylated Peptides via Imine Formation” (Journal of the American Chemical Society, 2022)

Experiments:
[1] = Au(I)-mediated imine macrocyclisation (JohnPhosAu(MeCN)SbF6 2 equiv, Et4NBr 16 equiv) then in situ NaBH4 reduction to cyclic amine, HPLC isolation; conditions: the molecule shown is the open-chain precursor, DMF, 8.0 mM, 37.0 °C, 2 steps
[2] = Au(I)-mediated imine macrocyclisation: N-terminal amine adds (Markovnikov) to N-propargyl backbone amide alkyne; JohnPhosAu(MeCN)SbF6 2 equiv, Et4NBr 16 equiv; in situ NaBH4 10 equiv reduction 15 min for quantification; conditions: DMF, 8.0 mM, 37.0 °C

C#CCN(CC(N)=O)C(=O)[C@@H](NC(=O)[C@H](C)NC(=O)[C@H](CCCNC(=N)N)NC(=O)[C@H](Cc1ccc(O)cc1)NC(=O)[C@H](CC(C)C)NC(=O)CNC(=O)[C@@H](N)Cc1ccccc1)[C@@H](C)CC [H-Phe-Gly-Leu-Tyr-Arg-Ala-Ile-(N-propargyl)Gly-NH2]
ring closure, yield over several steps ([1]; 24-membered ring, 1.0 h): 66%

CC[C@H](C)[C@@H]1NC(C)CN(CC(N)=O)C(=O)CNC(=O)[C@H](C)NC(=O)[C@H](CCCNC(=N)N)NC(=O)[C@H](Cc2ccc(O)cc2)NC(=O)[C@H](CC(C)C)NC(=O)CNC1=O (stereo partly drawn) [H-Ile-Gly-Leu-Tyr-Arg-Ala-Gly-(N-propargyl)Gly-NH2]
ring closure, conversion by HPLC ([2]; from C#CCN(CC(N)=O)C(=O)CNC(=O)[C@H](C)NC(=O)[C@H](CCCNC(=N)N)NC(=O)[C@H](Cc1ccc(O)cc1)NC(=O)[C@H](CC(C)C)NC(=O)CNC(=O)[C@@H](N)[C@@H](C)CC, 24-membered ring, 1.0 h): 76%

CC(C)C[C@@H]1NC(=O)CNC(=O)[C@H](CC(N)=O)NC(C)CN(CC(N)=O)C(=O)CNC(=O)[C@H](C)NC(=O)[C@H](CCCNC(=N)N)NC(=O)[C@H](Cc2ccc(O)cc2)NC1=O (stereo partly drawn) [H-Asn-Gly-Leu-Tyr-Arg-Ala-Gly-(N-propargyl)Gly-NH2]
ring closure, conversion by HPLC ([2]; from C#CCN(CC(N)=O)C(=O)CNC(=O)[C@H](C)NC(=O)[C@H](CCCNC(=N)N)NC(=O)[C@H](Cc1ccc(O)cc1)NC(=O)[C@H](CC(C)C)NC(=O)CNC(=O)[C@@H](N)CC(N)=O, 24-membered ring, 1.0 h): 76%

CC(C)C[C@@H]1NC(=O)CNC(=O)[C@H](Cc2ccccc2)NC(C)CN(CC(N)=O)C(=O)CNC(=O)[C@H](C)NC(=O)[C@H](CCCNC(=N)N)NC(=O)[C@H](Cc2ccc(O)cc2)NC1=O (stereo partly drawn) [H-Phe-Gly-Leu-Tyr-Arg-Ala-Gly-(N-propargyl)Gly-NH2]
ring closure, conversion by HPLC ([2]; from C#CCN(CC(N)=O)C(=O)CNC(=O)[C@H](C)NC(=O)[C@H](CCCNC(=N)N)NC(=O)[C@H](Cc1ccc(O)cc1)NC(=O)[C@H](CC(C)C)NC(=O)CNC(=O)[C@@H](N)Cc1ccccc1, 24-membered ring, 0.5 h): 85%

C#CCN(CC(N)=O)C(=O)CNC(=O)[C@H](C)NC(=O)[C@H](CCCNC(=N)N)NC(=O)[C@H](Cc1ccc(O)cc1)NC(=O)[C@H](CC(C)C)NC(=O)CNC(=O)[C@@H](N)Cc1ccccc1 [H-Phe-Gly-Leu-Tyr-Arg-Ala-Gly-(N-propargyl)Gly-NH2]
ring closure, yield over several steps ([1]; 24-membered ring, 0.5 h): 75%

CC(C)C[C@@H]1NC(=O)CNC(=O)[C@H](CC(=O)O)NC(C)CN(CC(N)=O)C(=O)CNC(=O)[C@H](C)NC(=O)[C@H](CCCNC(=N)N)NC(=O)[C@H](Cc2ccc(O)cc2)NC1=O (stereo partly drawn) [H-Asp-Gly-Leu-Tyr-Arg-Ala-Gly-(N-propargyl)Gly-NH2]
ring closure, conversion by HPLC ([2]; from C#CCN(CC(N)=O)C(=O)CNC(=O)[C@H](C)NC(=O)[C@H](CCCNC(=N)N)NC(=O)[C@H](Cc1ccc(O)cc1)NC(=O)[C@H](CC(C)C)NC(=O)CNC(=O)[C@@H](N)CC(=O)O, 24-membered ring, 1.0 h): 76%

CC(C)C[C@@H]1NC(=O)CNC(=O)[C@H](CCCNC(=N)N)NC(C)CN(CC(N)=O)C(=O)CNC(=O)[C@H](C)NC(=O)[C@H](CCCNC(=N)N)NC(=O)[C@H](Cc2ccc(O)cc2)NC1=O (stereo partly drawn) [H-Arg-Gly-Leu-Tyr-Arg-Ala-Gly-(N-propargyl)Gly-NH2]
ring closure, conversion by HPLC ([2]; from C#CCN(CC(N)=O)C(=O)CNC(=O)[C@H](C)NC(=O)[C@H](CCCNC(=N)N)NC(=O)[C@H](Cc1ccc(O)cc1)NC(=O)[C@H](CC(C)C)NC(=O)CNC(=O)[C@@H](N)CCCNC(=N)N, 24-membered ring, 1.0 h): 83%

CC(C)C[C@@H]1NC(=O)CNC(=O)[C@H](CCC(=O)O)NC(C)CN(CC(N)=O)C(=O)CNC(=O)[C@H](C)NC(=O)[C@H](CCCNC(=N)N)NC(=O)[C@H](Cc2ccc(O)cc2)NC1=O (stereo partly drawn) [H-Glu-Gly-Leu-Tyr-Arg-Ala-Gly-(N-propargyl)Gly-NH2]
ring closure, conversion by HPLC ([2]; from C#CCN(CC(N)=O)C(=O)CNC(=O)[C@H](C)NC(=O)[C@H](CCCNC(=N)N)NC(=O)[C@H](Cc1ccc(O)cc1)NC(=O)[C@H](CC(C)C)NC(=O)CNC(=O)[C@@H](N)CCC(=O)O, 24-membered ring, 1.0 h): 89%

CC(C)C[C@@H]1NC(=O)CNC(=O)[C@H](CO)NC(C)CN(CC(N)=O)C(=O)CNC(=O)[C@H](C)NC(=O)[C@H](CCCNC(=N)N)NC(=O)[C@H](Cc2ccc(O)cc2)NC1=O (stereo partly drawn) [H-Ser-Gly-Leu-Tyr-Arg-Ala-Gly-(N-propargyl)Gly-NH2]
ring closure, conversion by HPLC ([2]; from C#CCN(CC(N)=O)C(=O)CNC(=O)[C@H](C)NC(=O)[C@H](CCCNC(=N)N)NC(=O)[C@H](Cc1ccc(O)cc1)NC(=O)[C@H](CC(C)C)NC(=O)CNC(=O)[C@@H](N)CO, 24-membered ring, 1.0 h): 75%

CC(C)C[C@@H]1NC(=O)CNC(=O)[C@H](Cc2ccccc2)NC(C)CN([C@@H](C)C(N)=O)C(=O)CNC(=O)[C@H](C)NC(=O)[C@H](CCCNC(=N)N)NC(=O)[C@H](Cc2ccc(O)cc2)NC1=O (stereo partly drawn) [H-Phe-Gly-Leu-Tyr-Arg-Ala-Gly-(N-propargyl)Ala-NH2]
ring closure, conversion by HPLC ([2]; from C#CCN(C(=O)CNC(=O)[C@H](C)NC(=O)[C@H](CCCNC(=N)N)NC(=O)[C@H](Cc1ccc(O)cc1)NC(=O)[C@H](CC(C)C)NC(=O)CNC(=O)[C@@H](N)Cc1ccccc1)[C@@H](C)C(N)=O, 24-membered ring, 1.0 h): 90%

CC(C)C[C@@H]1NC(=O)CNC(=O)[C@H](Cc2ccccc2)NC(C)CN(CC(N)=O)C(=O)CNC(=O)[C@H](C)NC(=O)[C@H](CCC(=O)O)NC(=O)[C@H](Cc2ccc(O)cc2)NC1=O (stereo partly drawn) [H-Phe-Gly-Leu-Tyr-Glu-Ala-Gly-(N-propargyl)Gly-NH2]
ring closure, conversion by HPLC ([2]; from C#CCN(CC(N)=O)C(=O)CNC(=O)[C@H](C)NC(=O)[C@H](CCC(=O)O)NC(=O)[C@H](Cc1ccc(O)cc1)NC(=O)[C@H](CC(C)C)NC(=O)CNC(=O)[C@@H](N)Cc1ccccc1, 24-membered ring, 1.0 h): 83%

C#CCN(CC(N)=O)C(=O)CNC(=O)[C@H](C)NC(=O)[C@H](CO)NC(=O)[C@H](Cc1ccc(O)cc1)NC(=O)[C@H](CC(C)C)NC(=O)CNC(=O)[C@@H](N)Cc1ccccc1 [H-Phe-Gly-Leu-Tyr-Ser-Ala-Gly-(N-propargyl)Gly-NH2]
ring closure, yield over several steps ([1]; 24-membered ring, 1.0 h): 60%

C#CCN(CC(N)=O)C(=O)CNC(=O)[C@H](C)NC(=O)[C@H](CCCNC(=N)N)NC(=O)[C@H](Cc1ccc(O)cc1)NC(=O)[C@H](CC(C)C)NC(=O)[C@H](CCCCN)NC(=O)CNC(=O)OCC1c2ccccc2-c2ccccc21 [Fmoc-Gly-Lys-Leu-Tyr-Arg-Ala-Gly-(N-propargyl)Gly-NH2]
ring closure, yield over several steps ([1]; 25-membered ring, 1.0 h): 61%

CC(C)C[C@@H]1NC(=O)CNC(C)CN(CC(N)=O)C(=O)CNC(=O)[C@H](C)NC(=O)[C@H](Cc2ccc(O)cc2)NC1=O (stereo partly drawn) [H-Gly-Leu-Tyr-Ala-Gly-(N-propargyl)Gly-NH2]
ring closure, conversion by HPLC ([2]; from C#CCN(CC(N)=O)C(=O)CNC(=O)[C@H](C)NC(=O)[C@H](Cc1ccc(O)cc1)NC(=O)[C@H](CC(C)C)NC(=O)CN, 18-membered ring, 0.5 h): 79%

CC(C)C[C@@H]1NC(=O)CNC(C)CN(CC(N)=O)C(=O)CNC(=O)[C@H](C)NC(=O)[C@H](CS)NC(=O)[C@H](Cc2ccc(O)cc2)NC1=O (stereo partly drawn) [H-Gly-Leu-Tyr-Cys-Ala-Gly-(N-propargyl)Gly-NH2]
ring closure, conversion by HPLC ([2]; from C#CCN(CC(N)=O)C(=O)CNC(=O)[C@H](C)NC(=O)[C@H](CS)NC(=O)[C@H](Cc1ccc(O)cc1)NC(=O)[C@H](CC(C)C)NC(=O)CN, 21-membered ring, 0.5 h): 75%

CC(C)C[C@@H]1NC(=O)CNC(=O)[C@H](Cc2ccccc2)NC(C)CN(CC(N)=O)C(=O)[C@H](CC(=O)O)NC(=O)[C@H](C)NC(=O)[C@H](CCCNC(=N)N)NC(=O)[C@H](Cc2ccc(O)cc2)NC1=O (stereo partly drawn) [H-Phe-Gly-Leu-Tyr-Arg-Ala-Asp-(N-propargyl)Gly-NH2]
ring closure, conversion by HPLC ([2]; from C#CCN(CC(N)=O)C(=O)[C@H](CC(=O)O)NC(=O)[C@H](C)NC(=O)[C@H](CCCNC(=N)N)NC(=O)[C@H](Cc1ccc(O)cc1)NC(=O)[C@H](CC(C)C)NC(=O)CNC(=O)[C@@H](N)Cc1ccccc1, 24-membered ring, 1.0 h): 80%

CC(C)C[C@@H]1NC(=O)CNC(=O)[C@H](Cc2ccccc2)NC(C)CN(CC(N)=O)C(=O)CNC(=O)[C@H](C)NC(=O)[C@H](CC(=O)O)NC(=O)[C@H](Cc2ccc(O)cc2)NC1=O (stereo partly drawn) [H-Phe-Gly-Leu-Tyr-Asp-Ala-Gly-(N-propargyl)Gly-NH2]
ring closure, conversion by HPLC ([2]; from C#CCN(CC(N)=O)C(=O)CNC(=O)[C@H](C)NC(=O)[C@H](CC(=O)O)NC(=O)[C@H](Cc1ccc(O)cc1)NC(=O)[C@H](CC(C)C)NC(=O)CNC(=O)[C@@H](N)Cc1ccccc1, 24-membered ring, 1.0 h): 82%

CC(C)C[C@@H]1NC(=O)CNC(C)CN(CC(N)=O)C(=O)CNC(=O)CNC(=O)CNC(=O)[C@H](C)NC(=O)[C@H](CCCNC(=N)N)NC(=O)[C@H](Cc2ccc(O)cc2)NC(=O)[C@H](CC(C)C)NC(=O)[C@H](Cc2ccccc2)NC(=O)[C@H](C)NC(=O)[C@H](CCCNC(=N)N)NC(=O)[C@H](Cc2ccc(O)cc2)NC1=O (stereo partly shown)
ring closure, conversion by HPLC ([2]; from C#CCN(CC(N)=O)C(=O)CNC(=O)CNC(=O)CNC(=O)[C@H](C)NC(=O)[C@H](CCCNC(=N)N)NC(=O)[C@H](Cc1ccc(O)cc1)NC(=O)[C@H](CC(C)C)NC(=O)[C@H](Cc1ccccc1)NC(=O)[C@H](C)NC(=O)[C@H](CCCNC(=N)N)NC(=O)[C@H](Cc1ccc(O)cc1)NC(=O)[C@H](CC(C)C)NC(=O)CN, 42-membered ring, 1.0 h): 90%

C#CCN(CC(N)=O)C(=O)CNC(=O)[C@H](C)NC(=O)[C@H](CCCNC(=N)N)NC(=O)[C@H](Cc1ccc(O)cc1)NC(=O)[C@H](CC(C)C)NC(=O)CNC(=O)[C@@H](N)Cc1c[nH]c2ccccc12 [H-Trp-Gly-Leu-Tyr-Arg-Ala-Gly-(N-propargyl)Gly-NH2]
ring closure, yield over several steps ([1]; 24-membered ring, 1.0 h): 74%
